{"source": "patent EP2662079A1", "about": "(Ordway Research Institute, Inc., priority 2012, dated 2013)", "key": {"Matrigel plugs": {"test_system": "Matrigel plugs", "test": "Mouse Matrigel model of angiogenesis (plug hemoglobin)", "type": "in vivo, mice (C57BL/6NCr)", "protocol": "Normal male mice (C57BL/6NCr) 6-8 weeks of age and weighing ~20 g were purchased from Taconic farm. Animals were housed 4 per cage, in controlled conditions of temperature (20-24 °C); humidity (60-70%) and 12 hrs. light/dark cycle provided with food and water ad libitum. […] Matrigel (BD Bioscience, San Jose CA) was thawed overnight at 4 °C and placed on ice. Aliquots of matrigel were placed into cold polypropylene tubes to prevent the matrigel from solidifying and the angiogenesis promoter added to matrigel with or without agonist. Mice were treated daily. Matrigel was subcutaneously injected as triple injection per animal at 100 µL/animal. At day 14 post plug implant all animals were killed in CO2 chamber and matrigel plugs were collected. […]\nThe matrigel plugs dissected from the mice were carefully stripped of any remaining peritoneum. The plugs were placed into 0.5 mL tube of ddH2O and homogenized for 5-10 min. […] Absorbance was read with a Microplate Manager ELISA reader at 540 nm. […] Hemoglobin concentration is a reflection of the number of blood vessels in the plugs."}, "MCF7/R cells": {"test_system": "MCF7/R cells", "test": "Growth of doxorubicin-resistant tumors in nude mice", "type": "in vivo", "conditions": "Tetrac 30 mg/kg (Figure 17)"}, "[1]": {"test_system": "Human medullary carcinoma cells (TT)", "type": "in vivo", "text": "Cells and cell culture. […] Tetrac versus Tetrac NP distribution in h-MTC. […] Penicillin streptomycin (1%) was present in both culture media. […] Cell implantation in nude mice. […] Water and food were provided ad libitum.\nTreatment of animals with unmodified or nanoparticulate Tetrac. […] Estimation of tumor response to Tetrac or nanoparticulate Tetrac. […] Statistical analysis for CAM and xenograft studies. […] Statistical significance was defined as P <0.05. RNA microarray analysis."}, "[2]": {"test_system": "GL261 murine brain tumor cells", "test": "GL261 growth curve, cell size and colony forming efficiency", "type": "cell-based", "protocol": "1 x 10^5 cells per 25 cm^2 flask at time zero (density 40 cells/mm^2). Three flasks were utilized at each time period. The medium in the flasks was not changed over the duration of the growth curve (unfed cultures). Data were taken daily from day zero to day 11.5 post-seeding and cell numbers, age distributions, and apoptotic percentages were determined. After growth curve shapes (without and with 2 µM Tetrac) were determined, irradiation times at 70 and 270 hour post-seeding were chosen.\nTo obtain exponential and plateau phase cell numbers, we trypsinized ([…] trypsin-EDTA) cells for 5 min at 37°C.\nFor determination of CCDTs, the cell numbers per flask were determined on a daily basis. A four-day interval in the exponential region of growth to obtain the CCDTs, yielding a total of 12 estimations for analysis was utilized. A regression analysis was performed using the (log) of the cell number versus the linear time in days (SigmaPlot, V. 10, Systat Software, Inc., Point Richmond, CA). The log slope value and its standard error (SE) were determined, and the SE was converted to the 95% confidence limits using a two-tailed t-table at N-1 degrees of freedom where N is the number of samples. (See Goldstein, A. In: Biostatistics, New York, The MacMillan Co., 1964, p. 140-146)."}, "GL261 cells": {"test_system": "GL261 cells", "test": "Potentially lethal damage repair (PLDR)", "type": "cell-based, murine", "protocol": "PLDR was also measured using the 10% survival level in both control and Tetrac treated-cells, and was also done for both exponentially growing and plateau phase cells. The total 10% survival dose was given, and then cells were placed back into the 37°C incubator for various periods of time. At 0, 0.5, 1.0, 1.5, 2.0, 3.0, 4.0, 6.0, 8.0, and 10.0 hours, flasks were removed, and processed for survival assessment.\nTo investigate the effects of Tetrac on SLDR and PLDR, cells were chosen that had been given a one-hour treatment with Tetrac at two different times, i.e., at 70 and 270 hours post-seeding)."}, "U87MG cells": {"test_system": "U87MG cells", "test": "Neutral comet assay (DNA double-strand breaks)", "type": "cell-based, human", "protocol": "For the comet assay studies of induction and repair of DSBs in U87MG cells, cells were treated as described above. However, for the single dose induction ofDSBs doses ranged from 0-30 Gy, and for the study of the repair ofDSBs in irradiated cells, a large single dose of 60 Gy requiring approximately 1 h of irradiation time was given. Appropriate temperature controls (on ice) were run to insure that no decrement in survival was produced by the 1 h exposure to 0°C.\nU87MG cells on plastic slides were exposed to 2 nM Tetrac for 1 h at 37°C. These slides were then placed on crushed ice and irradiated with doses from 0 to 75 Gy. Slides were immersed in lysing solution at 50°C for 2 hours. Slides were washed, and placed into a gel electrophoresis unit. Electrophoresis was carried out at 0.66 V/cm for 25 min. Cells were stained with ethidium bromide and image analysis was done using an epifluoresence microscope at a total magnification of 400 X. We also used an excitation filter of 515-535 nm and a barrier filter at 590 nm. The mean tail moment (TM) which is expressed in arbitrary units was then calculated. TM was calculated using a CCD camera and software. Approximately 350 comets were analyzed per condition."}, "[3]": {"conditions": "single dose of 30 Gy, Tetrac-treated cells"}}, "note": "“And” between values parts separate entries of the source, which are not always exact repeats. Identical values can stand only once."}
{"molecule": "O=C(O)Cc1cc(I)c(Oc2cc(I)c(O)c(I)c2)c(I)c1", "note": "[Tetrac, 3,3',5,5'-tetraiodothyroacetic acid]", "values": [{"measurement": "Hemoglobin (mg/mL)± SEM", "setting": "Matrigel plugs; FGF 100 ng + compound 10 µg/plug, n= 7-14", "result": "0.5 ± 0.1", "unit": "mg/mL"}, {"measurement": "Mean inhibition of angiogenesis (%)", "setting": "Matrigel plugs; FGF-induced angiogenesis, 10 µg/plug", "result": 85, "unit": "%"}, {"measurement": "Hemoglobin (mg/mL)± SEM", "setting": "Matrigel plugs; T4 + antagonist, each 10 µg/matrigcl plug", "result": "0.4 ± 0.1", "unit": "mg/mL"}, {"measurement": "growth of drug resistant tumors in nude mice", "setting": "MCF7/R cells", "result": "effective in suppressing the growth"}, {"measurement": "reduction of tumor mass compared to controls", "setting": "[1]; Tetrac 10 mg/kg i.p., nanoparticulate Tetrac 1 mg/kg i.p., end of study", "result": "65-80%"}, {"measurement": "decrease of tumor tissue hemoglobin content", "setting": "[1]; Tetrac 10 mg/kg or Tetrac NP 1 mg/kg i.p. daily for 3 weeks", "result": 66, "unit": "%"}, {"measurement": "reduction in tumor-associated neovascularization (hemoglobin levels in tumor tissue)", "setting": "[1]; Tetrac 10 mg/kg or Tetrac NP 1 mg/kg i.p. daily for 21 days", "result": "70-80%"}, {"measurement": "tumor size", "setting": "[1]; Tetrac 10 mg/kg or Tetrac NP 1 mg/kg i.p. daily, over 21 days", "result": "< 100", "unit": "mm^3"}, {"measurement": "time to detected reduction in tumor size", "setting": "[1]; after initiation of treatment", "result": "≤ 2", "unit": "days"}, {"measurement": "saturation density of control cells relative to Tetrac-treated cells", "setting": "[2]", "result": "approximately 2.4 times"}, {"measurement": "cell doubling time", "setting": "[2]; Tetrac-treated GL261 cells, 2 µM, exponential growth", "result": "43.8 ± 3.8 h and 43.8 h"}, {"measurement": "factor by which Tetrac inhibited PLDR", "setting": "GL261 cells; exponential cells", "result": 1.9}, {"measurement": "factor by which Tetrac decreased PLDR expression", "setting": "GL261 cells; plateau phase cells", "result": 3.4}, {"measurement": "increase of the slow repair part of the curve", "setting": "U87MG cells", "result": "approximately 2.2 fold"}, {"measurement": "sensitization factor (steady-state DSB levels)", "setting": "U87MG cells; 0 Gy", "result": 2.2}, {"measurement": "mean tail moment", "setting": "U87MG cells; 0 radiation dose, 1 h Tetrac at 37°C, arbitrary units", "result": "12.4 and 13.1"}, {"measurement": "slope of DSB repair versus time", "setting": "U87MG cells; after 30 Gy of x-rays (control -4.36)", "result": -1.20}, {"measurement": "relative percentage of fast repair", "setting": "U87MG cells; [3]", "result": 16, "unit": "%"}, {"measurement": "relative percentage of slow repair", "setting": "U87MG cells; [3]", "result": 84, "unit": "%"}, {"measurement": "inhibition of the repair of DNA double strand breaks", "setting": "U87MG cells; vs control U87MG cells", "result": 72.5, "unit": "%"}]}
